Measured values reported in patent US6355799B1, “Substituted benzene compounds, process for their preparation, and herbicidal and defoliant compositions containing them” (ISK Americas Incorporated, priority 1997, dated 2002).

Legend:
Assay type in all cases: in vivo
[1] = system: redroot pigweed (Amaranthus retroflexus, AMARE); test: Pre-emerge test, greenhouse herbicide activity screening; conditions: rating scale 0-100, 14 days after application
How it was run: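 Compounds in acetone were track-sprayed at 187 l/ha, 15–1000 g ai/ha, onto sandy loam pots. Pre-emerge seeds were sown one day before spraying, with surface watering afterwards. Post-emerge plants were at the 2–3 leaf stage and sprayed with 0.25% v/v non-ionic surfactant. Injury was rated 0–100 at 14 days.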

[2] = system: field corn (Zea mays L., var. Dekalb 535, CORN); test: Pre-emerge test, crop safety; conditions: rating scale 0-100, 14 days after application
How it was run: (§1)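 Applied at 15–1000 g ai/ha from acetone in 187 l/ha spray volume. Post-emergence applications included 0.25% v/v non-ionic surfactant and reached plants sown 8–21 days before. Pre-emergence applications were incorporated by surface watering. Efficacy or crop damage was rated on a 0–100 scale after 14 days.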

[3] = system: upland rice (Oryza sp., var. Tebonnet, RICE); test: Pre-emerge test, crop safety; conditions: rating scale 0-100, 14 days after application
How it was run: as §1

[4] = system: lambsquarters (Chenopodium album, CHEAL); test: Post-emerge test, greenhouse herbicide activity screening; conditions: rating scale 0-100 (0 no damage, 100 complete death), 14 days after application
How it was run: (§2)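 Rating: 0–100 visual injury, 14 DAA. Application: acetone, 187 l/ha, 15–1000 g ai/ha, flat-fan track sprayer with nozzle 40–45 cm above soil or canopy. Post-emerge runs used 0.25% v/v surfactant on 2–3 leaf plants.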

[5] = system: redroot pigweed (Amaranthus retroflexus, AMARE); test: as above; conditions: rating scale 0-100 (0 no damage, 100 complete death), 14 days after application
How it was run: as §2

[6] = system: green foxtail (Setaria viridis, SETVI); test: as above; conditions: rating scale 0-100 (0 no damage, 100 complete death), 14 days after application
How it was run: as §2

[7] = system: velvetleaf (Abutilon theophrasti, ABUTH); test: as above; conditions: rating scale 0-100 (0 no damage, 100 complete death), 14 days after application
How it was run: as §2

[8] = system: johnsongrass (Sorghum halepense, SORHA); test: as above; conditions: rating scale 0-100 (0 no damage, 100 complete death), 14 days after application
How it was run: as §2

[9] = system: common ragweed (Ambrosia artemisizfolia L., AMBEL); test: as above; conditions: rating scale 0-100 (0 no damage, 100 complete death), 14 days after application
How it was run: as §2

[10] = system: sicklepod (Cassia obtusifolia, CASOB); test: as above; conditions: rating scale 0-100 (0 no damage, 100 complete death), 14 days after application
How it was run: as §2

[11] = system: barnyardgrass (Echinochloa crus-galli, ECHCG); test: as above; conditions: rating scale 0-100 (0 no damage, 100 complete death), 14 days after application
How it was run: as §2

[12] = system: large crabgrass (Digitaria sanguinalis, DIGSA); test: as above; conditions: rating scale 0-100 (0 no damage, 100 complete death), 14 days after application
How it was run: as §2

[13] = system: ivyleaf morningglory (Ipomoea hederacea, IPOHE); test: as above; conditions: rating scale 0-100 (0 no damage, 100 complete death), 14 days after application
How it was run: as §2

[14] = system: lambsquarters (Chenopodium album, CHEAL); test: Pre-emerge test, greenhouse herbicide activity screening; conditions: rating scale 0-100, 14 days after application
How it was run: as §1

[15] = system: green foxtail (Setaria viridis, SETVI); test: as above; conditions: rating scale 0-100, 14 days after application
How it was run: as §1

[16] = system: velvetleaf (Abutilon theophrasti, ABUTH); test: as above; conditions: rating scale 0-100, 14 days after application
How it was run: as §1

[17] = system: johnsongrass (Sorghum halepense, SORHA); test: as above; conditions: rating scale 0-100, 14 days after application
How it was run: as §1

[18] = system: common ragweed (Ambrosia artemisizfolia L., AMBEL); test: as above; conditions: rating scale 0-100, 14 days after application
How it was run: as §1

[19] = system: sicklepod (Cassia obtusifolia, CASOB); test: as above; conditions: rating scale 0-100, 14 days after application
How it was run: as §1

[20] = system: barnyardgrass (Echinochloa crus-galli, ECHCG); test: as above; conditions: rating scale 0-100, 14 days after application
How it was run: as §1

[21] = system: large crabgrass (Digitaria sanguinalis, DIGSA); test: as above; conditions: rating scale 0-100, 14 days after application
How it was run: as §1

[22] = system: ivyleaf morningglory (Ipomoea hederacea, IPOHE); test: as above; conditions: rating scale 0-100, 14 days after application
How it was run: as §1

[23] = system: field corn (Zea mays L., var. Dekalb 535, CORN); test: Post-emerge test, crop safety; conditions: rating scale 0-100 (0 no damage, 100 complete death), 14 days after application
How it was run: as §1

[24] = system: upland rice (Oryza sp., var. Tebonnet, RICE); test: Post-emerge test, crop safety; conditions: rating scale 0-100 (0 no damage, 100 complete death), 14 days after application
How it was run: as §1

COc1c(Cl)cc(F)c(-n2c(=O)cc(C(F)(F)F)n(C)c2=O)c1CC(Cl)C(=O)OC(C)(C)C (stereo not drawn) [14-18] was tested, and the “Pre-emerge herbicidal activity, phytotoxicity rating AMARE” value ([1]; 63 g ai/ha) was 100, the “Pre-emerge herbicidal activity, phytotoxicity rating AMARE” value ([1]; 250 g ai/ha) was 100 and the “Pre-emerge phytotoxicity rating, crop damage CORN” value ([2]; 63 g ai/ha) was 0. The “Pre-emerge phytotoxicity rating, crop damage CORN” value ([2]; 250 g ai/ha) was 0, the “Pre-emerge phytotoxicity rating, crop damage RICE” value ([3]; 63 g ai/ha) was 0 and the “Pre-emerge phytotoxicity rating, crop damage RICE” value ([3]; 250 g ai/ha) was 10. The “Post-emerge Herbicidal Activity, phytotoxicity rating CHEAL” value ([4]; Rate 63 g ai/ha) was 99, the “Post-emerge Herbicidal Activity, phytotoxicity rating CHEAL” value ([4]; Rate 250 g ai/ha) was 100 and the “Post-emerge Herbicidal Activity, phytotoxicity rating AMARE” value ([5]; Rate 63 g ai/ha) was 100. For the same compound, the “Post-emerge Herbicidal Activity, phytotoxicity rating AMARE” value ([5]; Rate 250 g ai/ha) was 100, the “Post-emerge Herbicidal Activity, phytotoxicity rating SETVI” value ([6]; Rate 63 g ai/ha) was 10 and the “Post-emerge Herbicidal Activity, phytotoxicity rating SETVI” value ([6]; Rate 250 g ai/ha) was 20. The “Post-emerge Herbicidal Activity, phytotoxicity rating ABUTH” value ([7]; Rate 63 g ai/ha) was 30, the “Post-emerge Herbicidal Activity, phytotoxicity rating ABUTH” value ([7]; Rate 250 g ai/ha) was 60 and the “Post-emerge Herbicidal Activity, phytotoxicity rating SORHA” value ([8]; Rate 63 g ai/ha) was 10. For the same compound, the “Post-emerge Herbicidal Activity, phytotoxicity rating SORHA” value ([8]; Rate 250 g ai/ha) was 30, the “Post-emerge Herbicidal Activity, phytotoxicity rating AMBEL” value ([9]; Rate 63 g ai/ha) was 0 and the “Post-emerge Herbicidal Activity, phytotoxicity rating AMBEL” value ([9]; Rate 250 g ai/ha) was 10. For the same compound, the “Post-emerge Herbicidal Activity, phytotoxicity rating CASOB” value ([10]; Rate 63 g ai/ha) was 20, the “Post-emerge Herbicidal Activity, phytotoxicity rating CASOB” value ([10]; Rate 250 g ai/ha) was 60 and the “Post-emerge Herbicidal Activity, phytotoxicity rating ECHCG” value ([11]; Rate 63 g ai/ha) was 99. The “Post-emerge Herbicidal Activity, phytotoxicity rating ECHCG” value ([11]; Rate 250 g ai/ha) was 100, the “Post-emerge Herbicidal Activity, phytotoxicity rating DIGSA” value ([12]; Rate 63 g ai/ha) was 20 and the “Post-emerge Herbicidal Activity, phytotoxicity rating DIGSA” value ([12]; Rate 250 g ai/ha) was 60. For the same compound, the “Post-emerge Herbicidal Activity, phytotoxicity rating IPOHE” value ([13]; Rate 63 g ai/ha) was 30, the “Post-emerge Herbicidal Activity, phytotoxicity rating IPOHE” value ([13]; Rate 250 g ai/ha) was 60 and the “Pre-emerge herbicidal activity, phytotoxicity rating CHEAL” value ([14]; 63 g ai/ha) was 100. The “Pre-emerge herbicidal activity, phytotoxicity rating CHEAL” value ([14]; 250 g ai/ha) was 100, the “Pre-emerge herbicidal activity, phytotoxicity rating SETVI” value ([15]; 63 g ai/ha) was 0 and the “Pre-emerge herbicidal activity, phytotoxicity rating SETVI” value ([15]; 250 g ai/ha) was 20. For the same compound, the “Pre-emerge herbicidal activity, phytotoxicity rating ABUTH” value ([16]; 63 g ai/ha) was 40, the “Pre-emerge herbicidal activity, phytotoxicity rating ABUTH” value ([16]; 250 g ai/ha) was 70 and the “Pre-emerge herbicidal activity, phytotoxicity rating SORHA” value ([17]; 63 g ai/ha) was 0. The “Pre-emerge herbicidal activity, phytotoxicity rating SORHA” value ([17]; 250 g ai/ha) was 10, the “Pre-emerge herbicidal activity, phytotoxicity rating AMBEL” value ([18]; 63 g ai/ha) was 0 and the “Pre-emerge herbicidal activity, phytotoxicity rating AMBEL” value ([18]; 250 g ai/ha) was 70. For the same compound, the “Pre-emerge herbicidal activity, phytotoxicity rating CASOB” value ([19]; 63 g ai/ha) was 0, the “Pre-emerge herbicidal activity, phytotoxicity rating CASOB” value ([19]; 250 g ai/ha) was 20 and the “Pre-emerge herbicidal activity, phytotoxicity rating ECHCG” value ([20]; 63 g ai/ha) was 0. For the same compound, the “Pre-emerge herbicidal activity, phytotoxicity rating ECHCG” value ([20]; 250 g ai/ha) was 20, the “Pre-emerge herbicidal activity, phytotoxicity rating DIGSA” value ([21]; 63 g ai/ha) was 0 and the “Pre-emerge herbicidal activity, phytotoxicity rating DIGSA” value ([21]; 250 g ai/ha) was 90. The “Pre-emerge herbicidal activity, phytotoxicity rating IPOHE” value ([22]; 63 g ai/ha) was 0, the “Pre-emerge herbicidal activity, phytotoxicity rating IPOHE” value ([22]; 250 g ai/ha) was 20 and the “Post-emerge phytotoxicity rating CORN (crop damage)” value ([23]; Rate 63 g ai/ha) was 20. For the same compound, the “Post-emerge phytotoxicity rating CORN (crop damage)” value ([23]; Rate 250 g ai/ha) was 50, the “Post-emerge phytotoxicity rating RICE (crop damage)” value ([24]; Rate 63 g ai/ha) was 10 and the “Post-emerge phytotoxicity rating RICE (crop damage)” value ([24]; Rate 250 g ai/ha) was 25.
